Measured values: the NIST ThermoML archive (doi:10.1016/j.jct.2016.12.018)
± gives the expanded uncertainty stated by the source.

Columns and labels:
[1] = refractive index (Na D-line) (dimensionless); details: 293.15 K; 100 kPa; Liquid; Standard Abbe refractometry
[2] = 293.15 K; 100 kPa; Liquid; Vibrating tube method

Row | refractive index [1] | mass density [2] [kg/m3] | Structure (SMILES)
1 | 1.45756 ± 0.0011 | 924.84 ± 2 | CC12CCC(CC1)C(C)(C)O2 [1,3,3-trimethyl-2-oxabicyclo[2.2.2]octane]
2 | 1.33299 ± 0.001 |  | O [water]
